The source of these data is PubChem BioAssay (NCI).

Where “and” joins values, the source holds several entries; their conditions need not be identical. Equal entries are not always repeated.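 Results reflect a 48-hour exposure of cells in 96-well plates to compound at five concentrations. Abbreviation: GI50, concentration required for 50% inhibition of growth. TGI: total growth inhibition.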 Where only a bound is given, the exact number is not on record here.

Some test systems named below: SF-539 CNS; NCI-H226 lung; UO-31 renal; NCI-H460 lung; CAKI-1 renal; HCT-116 colon; OVCAR-8 ovarian; SF-295 CNS; 786-0 renal; HCC-2998 colon; HL-60(TB) leukemia; HT29 colon; CCRF-CEM leukemia.
What all share (test): growth of human tumour cells (NCI), 48 h

Regarding `O=C1NCC2(CCN(CC3COc4ccccc4O3)CC2)N1c1ccccc1` (stereo not given), the TGI in the test on SF-539 CNS, in the test on NCI-H226 lung, in the test with UO-31 renal, in the test on NCI-H460 lung, in the test on CAKI-1 renal and with HCT-116 colon was over 100 µM throughout. Besides, the TGI with OVCAR-8 ovarian, in the test with SF-295 CNS, in the test with 786-0 renal, in the test on HCC-2998 colon, with HL-60(TB) leukemia and in the test on HT29 colon was over 100 µM throughout. The same molecule returned a TGI in the test with CCRF-CEM leukemia of over 100 µM.
On to `COc1cc(CNc2ccc(C)cc2)cc(OC)c1OC`, for which the GI50 is 0.284 µM and 0.72 µM in the test on NCI-H226 lung; 0.235 µM and 0.0641 µM with CAKI-1 renal; 0.333 µM and 0.816 µM in the test on HCT-116 colon; 0.155 µM and 0.333 µM in the test with SF-295 CNS; 0.124 µM and 0.365 µM with HCC-2998 colon; 0.156 µM with HT29 colon. Further, the TGI is over 100 µM in the test on UO-31 renal; > 23.8 µM and 3.92 µM with NCI-H460 lung; over 100 µM in the test with CAKI-1 renal; 0.439 µM in the test on SF-295 CNS; over 44.9 µM in the test on 786-0 renal; 1.16 µM and 2.48 µM in the test on HCC-2998 colon. Moreover, the TGI is 0.852 µM in the test on HT29 colon and over 83.6 µM with CCRF-CEM leukemia.
Take `CN(C)Cc1cc(C(=O)/C=C/c2ccc(Cl)cc2Cl)cc(CN(C)C)c1O`: the TGI in the test with SF-539 CNS came out at 17 µM; in the test on NCI-H226 lung it was 24 µM; in the test on UO-31 renal, 6.01 µM; in the test on NCI-H460 lung, 4.4 µM; with CAKI-1 renal it was 5.61 µM; with HCT-116 colon it was 11.7 µM. The TGI amounted to 11 µM with OVCAR-8 ovarian; 14 µM with SF-295 CNS; 13.5 µM with 786-0 renal; 20.2 µM with HCC-2998 colon; 8.67 µM in the test with HL-60(TB) leukemia; 6.91 µM with HT29 colon. The molecule also yielded a TGI with CCRF-CEM leukemia of 8.88 µM.
Take `CCCCCCCCC#CCCCCCCC(F)C(=O)O` (stereo not given): the TGI in the test with SF-539 CNS, in the test on NCI-H226 lung, with UO-31 renal, in the test on NCI-H460 lung, with HCT-116 colon and in the test with OVCAR-8 ovarian was over 100 µM each time. Moreover, the TGI in the test with SF-295 CNS is over 100 µM; in the test on 786-0 renal, over 100 µM; in the test on HCC-2998 colon, over 100 µM; in the test on HL-60(TB) leukemia it was 83.6 µM; in the test on HT29 colon, over 100 µM; in the test with CCRF-CEM leukemia it was over 100 µM.
For the molecule `O=C(O)CNc1ncc2c(n1)-c1ccccc1OC2`, the TGI in the test on SF-539 CNS, in the test with UO-31 renal, with NCI-H460 lung, in the test with CAKI-1 renal, in the test on HCT-116 colon and in the test with OVCAR-8 ovarian was over 100 µM each time. The TGI in the test on SF-295 CNS, in the test on 786-0 renal, in the test on HL-60(TB) leukemia, with HT29 colon and in the test on CCRF-CEM leukemia was over 100 µM each time.
`CCOC(=O)/C(=C\n1c(=O)sc2ccccc21)C(=O)c1ccccc1`: the TGI was over 100 µM with SF-539 CNS; over 100 µM in the test on NCI-H226 lung; over 100 µM in the test with UO-31 renal; over 100 µM in the test with NCI-H460 lung; 64.7 µM in the test with CAKI-1 renal; over 100 µM in the test with HCT-116 colon. Further, the TGI in the test with OVCAR-8 ovarian, in the test with SF-295 CNS, with 786-0 renal, with HCC-2998 colon, in the test with HL-60(TB) leukemia and in the test on HT29 colon was over 100 µM throughout. Moreover, the TGI in the test on CCRF-CEM leukemia was over 100 µM.
On to `C=CCNC(=S)NC=C(C(N)=O)C(N)=O`, for which the TGI with SF-539 CNS, in the test with NCI-H226 lung, in the test with UO-31 renal, in the test with NCI-H460 lung, with CAKI-1 renal and in the test with HCT-116 colon was over 100 µM each time. For the same molecule, the TGI with OVCAR-8 ovarian, in the test on SF-295 CNS, in the test with 786-0 renal, with HCC-2998 colon, in the test with HL-60(TB) leukemia and in the test on HT29 colon was over 100 µM throughout. The same molecule had a TGI in the test with CCRF-CEM leukemia of over 100 µM.
As to `CC[n+]1c(/C=C/c2cc(C(=O)OC)n3c2sc2ccccc23)sc2ccccc21`, the TGI in the test on SF-539 CNS is 33.8 µM; in the test with NCI-H226 lung it was 45.1 µM; in the test with UO-31 renal, 35.1 µM; with NCI-H460 lung it was 34.3 µM; in the test on HCT-116 colon it was 37.1 µM; in the test with 786-0 renal, 38.6 µM. The TGI in the test with HCC-2998 colon worked out at 27.8 µM; with HL-60(TB) leukemia, 98.4 µM; with HT29 colon, 33 µM; with CCRF-CEM leukemia, 32.6 µM.
With `C=Cc1c(-c2ccccc2)cnc2[nH]c3ccccc3c12`, the TGI in the test on UO-31 renal, with NCI-H460 lung, in the test with CAKI-1 renal, in the test with HCT-116 colon, in the test with OVCAR-8 ovarian and in the test with SF-295 CNS was over 50 µM in each case. In addition, the TGI with 786-0 renal, with HCC-2998 colon, with HL-60(TB) leukemia, in the test on HT29 colon and with CCRF-CEM leukemia was over 50 µM throughout.
Consider `CC1(C)COC(c2cccc(C(=O)c3ccccc3)c2)=N1`, for which the TGI in the test with UO-31 renal, in the test with NCI-H460 lung, with CAKI-1 renal, with HCT-116 colon, with OVCAR-8 ovarian and in the test with SF-295 CNS was over 100 µM each time. The TGI is over 100 µM in the test with 786-0 renal; over 100 µM in the test on HCC-2998 colon; 58 µM in the test on HL-60(TB) leukemia; over 100 µM in the test on HT29 colon; over 100 µM in the test on CCRF-CEM leukemia.
In the case of `CC(=O)/C=C1/C(=O)C(CC(C)C)=C1CC(C)C`, the TGI in the test with SF-539 CNS, in the test on NCI-H226 lung, with UO-31 renal, with CAKI-1 renal, in the test with HCT-116 colon and in the test on OVCAR-8 ovarian was over 100 µM throughout. The TGI in the test on SF-295 CNS, with 786-0 renal, with HL-60(TB) leukemia, in the test on HT29 colon and with CCRF-CEM leukemia was over 100 µM each time.
On to `c1ccc(CSCCC(SCc2ccccc2)SCc2ccccc2)cc1`, for which the TGI with SF-539 CNS, with NCI-H226 lung, in the test with UO-31 renal, with NCI-H460 lung, in the test on CAKI-1 renal and in the test on HCT-116 colon was over 10 µM in each case. Moreover, the TGI in the test with OVCAR-8 ovarian, in the test on SF-295 CNS, in the test with 786-0 renal, in the test on HCC-2998 colon, in the test on HL-60(TB) leukemia and in the test on HT29 colon was over 10 µM each time. Further, the TGI in the test on CCRF-CEM leukemia was over 10 µM.
Take `Cc1cc(O)c(C(O)c2ccccn2)cc1O` (stereo not given): the TGI was over 100 µM in the test on SF-539 CNS; 33.5 µM in the test on UO-31 renal; over 100 µM in the test with NCI-H460 lung; 24.2 µM with CAKI-1 renal; 31.2 µM in the test on HCT-116 colon; 40.8 µM with OVCAR-8 ovarian. The TGI with SF-295 CNS is over 100 µM; in the test on 786-0 renal it was 34.5 µM; in the test with HCC-2998 colon, 70.3 µM; with HL-60(TB) leukemia it was 53 µM; with HT29 colon, 44 µM; with CCRF-CEM leukemia, 38.4 µM.
On to `CCOC(=O)C1=C(C)N(Cc2ccccc2)C2(O)C=CC(=O)C3C(=O)N(c4ccccc4)C(=O)C132` (stereo not given), for which the TGI in the test with SF-539 CNS worked out at 3.45 µM; with NCI-H226 lung it was 5.7 µM; in the test with UO-31 renal, 3.81 µM; in the test on NCI-H460 lung, 4.77 µM; in the test with CAKI-1 renal it was 4.17 µM; in the test on HCT-116 colon, 2.49 µM. In addition, the TGI was 3.32 µM with OVCAR-8 ovarian; 13.7 µM with SF-295 CNS; 3.27 µM in the test on 786-0 renal; 3.2 µM with HCC-2998 colon; 4.98 µM in the test with HL-60(TB) leukemia; 3.33 µM in the test on HT29 colon. Moreover, in the test on CCRF-CEM leukemia, the TGI turned out to be 5.51 µM.
In the case of `COc1cccc(C2c3cc4c(cc3OC(N3CCCC3)C2c2ccccc2)OCO4)c1O` (stereo not given), the TGI amounted to 21.7 µM in the test with SF-539 CNS; 20.1 µM in the test with UO-31 renal; 33.7 µM with NCI-H460 lung; 7 µM with CAKI-1 renal; 17.7 µM with HCT-116 colon; 61.2 µM with OVCAR-8 ovarian. Besides, the TGI with SF-295 CNS was determined as 30.3 µM; in the test with 786-0 renal it was 27.8 µM; in the test on HCC-2998 colon it was 23.9 µM; in the test on HT29 colon it was 26.2 µM; in the test with CCRF-CEM leukemia, 24.6 µM.
For the molecule `O=C(NC1C(=O)NC(CCc2ccccc2)NC1=O)OCc1ccccc1` (stereo not given), the TGI with SF-539 CNS, in the test with NCI-H226 lung, with UO-31 renal, with NCI-H460 lung, in the test with CAKI-1 renal and with HCT-116 colon was over 100 µM each time. Moreover, the TGI in the test on OVCAR-8 ovarian, in the test on SF-295 CNS, with 786-0 renal, in the test with HL-60(TB) leukemia, in the test on HT29 colon and in the test on CCRF-CEM leukemia was over 100 µM throughout.
Regarding `CC(=O)NC1=C(NCCO)C(=O)c2ccccc2C1=O`, the TGI with SF-539 CNS, in the test with NCI-H226 lung, in the test with UO-31 renal, with NCI-H460 lung, with HCT-116 colon and with OVCAR-8 ovarian was over 50 µM in each case. The TGI in the test on SF-295 CNS, in the test on 786-0 renal, with HCC-2998 colon, in the test on HL-60(TB) leukemia, in the test with HT29 colon and with CCRF-CEM leukemia was over 50 µM throughout.
